Measured values reported in paper PMC9501899 (Journal of the American Chemical Society, 2022).
Read-outs that look alike come from different tables or passages of the source.

Assays:
pRab10 = assay: cells; assay type: cell-based, human; conditions: for EC50: Homo sapiens, PBMC, PBMCs, read-out: EC50s (pRab10)
Excerpt: (§1) The relative LRRK2 protein and pRab10 levels were obtained by quantifying the ratios of total LRRK2/GAPDH or Rab10-pThr73/total Rab10, respectively, and the ratios were normalized to the DMSO-treated samples. The relative LRRK2 and pRab10 protein levels were plotted against the compound concentration and fitted against “nonlinear regression, one site-fit log IC50” in GraphPad to obtain the DC50 and EC50 values. Data points are presented as mean ± standard error of the mean (SEM) from three biological independent replicates. […] The relative LRRK2 protein and pRab10 levels were obtained by quantifying the ratios of total LRRK2/ GAPDH or Rab10-pThr73/total Rab10, respectively, and the ratios were normalized to the DMSO-treated samples. The relative LRRK2 and pRab10 protein levels were plotted against the treatment time and were fitted against “nonlinear regression, one-phase decay” in GraphPad to obtain the half-life (T1/2) values. Data points are presented as mean ± SEM from three biological independent replicates. […] The relative LRRK2 levels were obtained by quantifying the ratios of total LRRK2/tubulin and normalized to the DMSO-treated samples. The relative LRRK2 levels were plotted against the compound concentration and fitted against “nonlinear regression, one site-fit log IC50” in GraphPad to obtain the DC50 values.
(§2) PBMC cells were separated from human blood from healthy volunteer donors following the existing protocol[82] and pelleted by centrifugation at 1000g for 2 min. The supernatant was discarded, and the PBMC pellet was resuspended in PBS containing 2% FBS for washing. The suspension was centrifuged at 1000g for 2 min again, and the PBMC pellet was resuspended in Roswell Park Memorial Institute (RPMI)-1640 (Gibco) media supplemented with 10% FBS. The cells were then seeded into six-well plates and treated with testing compounds at indicated concentrations and time periods. After treatment, the cells were collected into a 2 mL Eppendorf tube and centrifuged at 500g for 2 min to pellet the cells, the supernatant was discarded, and the pellet was resuspended in 1 mL PBS and centrifuged at 500g for 2 min again. The PBMC pellet was lysed with 60 μL of lysis buffer containing 50 mM tris–HCl, pH 7.5, 1% (v/v) Triton X-100, 1 mM ethylene glycol-bis(β-aminoethyl ether)-N,N,N′,N′-tetraacetic acid (EGTA), 1 mM sodium orthovanadate, 50 mM NaF, 0.1% (v/v) 2-mercaptoethanol, 10 mM 2-glycerophosphate, 5 mM sodium pyrophosphate, 0.1 μg/mL microcystin-LR (Enzo Life Sciences), 270 mM sucrose, and 0.5 mM diisopropyl fluorophosphate (DIFP) (Sigma-Aldrich, Cat# D0879) in addition to a complete EDTA-free protease inhibitor cocktail (Sigma-Aldrich Cat # 11836170001). DIFP is highly toxic and must be prepared in a fume hood to a stock solution of 0.5 M in isopropanol. The lysed cells were then centrifuged at 1500g for 15 min at 0 °C. The supernatants were collected for analysis by quantitative immunoblotting. For long-term storage, the supernatant was flash-frozen and stored at −80 °C. Protein concentrations of cell lysates were determined using the Pierce BCA Protein Assay Kit (Thermo Fisher).
Cell lysates containing a quarter of a volume of 4× NuPAGE LDS sample buffer (NP0007) supplemented with 5% β-mercaptoethanol were heated at 95 °C for 5 min. […]

human LRRK2 = molecular target: T1, human LRRK2 (Homo sapiens, UniProt Q5S007); assay: LRRK2 degradation in peripheral blood mononuclear cells (PBMCs); assay type: cell-based
T1 construct: endogenous in cells; host or cells: human PBMCs from healthy donors
T1 sequence (Q5S007 whole entry): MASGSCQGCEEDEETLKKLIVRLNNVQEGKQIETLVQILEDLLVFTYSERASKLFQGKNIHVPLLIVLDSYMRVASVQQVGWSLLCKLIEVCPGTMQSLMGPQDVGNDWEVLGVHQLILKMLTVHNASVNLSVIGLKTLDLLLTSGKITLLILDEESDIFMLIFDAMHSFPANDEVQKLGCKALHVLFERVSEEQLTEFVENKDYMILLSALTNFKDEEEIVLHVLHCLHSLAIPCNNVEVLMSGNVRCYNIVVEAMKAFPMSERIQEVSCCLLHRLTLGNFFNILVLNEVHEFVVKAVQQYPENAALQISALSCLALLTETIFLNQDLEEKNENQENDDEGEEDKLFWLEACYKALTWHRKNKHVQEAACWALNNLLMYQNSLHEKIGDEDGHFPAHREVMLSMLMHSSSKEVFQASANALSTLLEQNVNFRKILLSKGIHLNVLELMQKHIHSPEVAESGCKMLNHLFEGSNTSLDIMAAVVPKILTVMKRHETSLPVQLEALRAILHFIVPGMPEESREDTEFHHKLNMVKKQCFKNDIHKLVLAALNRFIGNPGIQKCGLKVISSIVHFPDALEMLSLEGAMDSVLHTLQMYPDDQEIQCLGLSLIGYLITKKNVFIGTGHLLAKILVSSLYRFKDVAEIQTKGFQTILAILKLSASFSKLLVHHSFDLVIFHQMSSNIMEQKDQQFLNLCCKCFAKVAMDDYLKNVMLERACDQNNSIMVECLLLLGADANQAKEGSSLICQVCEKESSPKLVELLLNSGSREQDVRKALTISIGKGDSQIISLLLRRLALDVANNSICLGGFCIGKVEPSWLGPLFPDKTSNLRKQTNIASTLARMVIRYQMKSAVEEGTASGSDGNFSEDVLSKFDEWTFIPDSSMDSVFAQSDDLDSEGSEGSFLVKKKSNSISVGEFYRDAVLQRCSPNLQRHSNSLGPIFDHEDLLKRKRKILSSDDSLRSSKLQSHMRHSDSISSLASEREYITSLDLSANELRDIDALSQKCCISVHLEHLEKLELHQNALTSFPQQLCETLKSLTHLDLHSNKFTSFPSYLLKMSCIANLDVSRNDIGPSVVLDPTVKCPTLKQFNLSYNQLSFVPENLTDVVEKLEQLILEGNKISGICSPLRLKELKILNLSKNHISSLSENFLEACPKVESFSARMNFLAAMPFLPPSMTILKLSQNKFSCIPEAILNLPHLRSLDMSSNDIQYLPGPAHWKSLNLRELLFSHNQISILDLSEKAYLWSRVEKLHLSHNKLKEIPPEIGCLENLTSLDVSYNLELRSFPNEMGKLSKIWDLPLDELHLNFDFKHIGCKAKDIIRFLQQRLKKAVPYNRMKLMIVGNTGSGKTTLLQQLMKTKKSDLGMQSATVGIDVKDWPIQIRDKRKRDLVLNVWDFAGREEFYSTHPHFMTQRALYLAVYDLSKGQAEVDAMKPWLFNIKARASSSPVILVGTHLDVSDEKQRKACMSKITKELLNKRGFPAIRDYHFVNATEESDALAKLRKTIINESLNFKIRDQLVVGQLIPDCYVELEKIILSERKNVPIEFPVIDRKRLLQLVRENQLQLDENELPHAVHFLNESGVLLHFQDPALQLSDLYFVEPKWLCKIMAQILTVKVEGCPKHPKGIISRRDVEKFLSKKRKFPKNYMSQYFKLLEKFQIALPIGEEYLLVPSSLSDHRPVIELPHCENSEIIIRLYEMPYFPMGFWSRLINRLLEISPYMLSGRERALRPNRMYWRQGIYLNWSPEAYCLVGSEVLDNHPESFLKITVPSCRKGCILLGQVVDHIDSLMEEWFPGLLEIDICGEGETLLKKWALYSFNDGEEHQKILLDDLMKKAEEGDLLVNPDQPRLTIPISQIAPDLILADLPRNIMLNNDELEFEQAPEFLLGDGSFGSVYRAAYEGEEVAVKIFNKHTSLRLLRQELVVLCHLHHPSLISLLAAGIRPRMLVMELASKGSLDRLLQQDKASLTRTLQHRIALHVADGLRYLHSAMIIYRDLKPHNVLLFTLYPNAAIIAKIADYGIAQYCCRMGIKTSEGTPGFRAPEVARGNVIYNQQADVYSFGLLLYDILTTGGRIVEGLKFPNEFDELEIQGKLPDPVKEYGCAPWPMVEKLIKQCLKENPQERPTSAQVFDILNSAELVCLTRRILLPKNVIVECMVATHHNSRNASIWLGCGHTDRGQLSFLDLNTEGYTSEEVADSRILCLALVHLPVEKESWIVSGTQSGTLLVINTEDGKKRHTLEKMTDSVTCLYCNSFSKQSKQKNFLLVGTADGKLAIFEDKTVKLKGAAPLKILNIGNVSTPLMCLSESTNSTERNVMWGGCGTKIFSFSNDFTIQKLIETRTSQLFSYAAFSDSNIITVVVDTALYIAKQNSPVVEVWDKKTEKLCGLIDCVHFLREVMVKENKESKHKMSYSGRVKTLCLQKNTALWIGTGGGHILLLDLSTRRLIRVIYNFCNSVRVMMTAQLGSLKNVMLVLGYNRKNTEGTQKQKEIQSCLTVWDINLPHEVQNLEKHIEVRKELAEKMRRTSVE
Excerpt: as §1, §2
Cell lysates containing a quarter of a volume of 4× NuPAGE LDS sample buffer (NP0007) supplemented with 5% β-mercaptoethanol were heated at 95 °C for 5 min. Samples (15–20 μg) were loaded onto precast 4–12% bis–tris midi 20W or 26W gels (Thermo Fisher Scientific, Cat# WG1402BOX or WG1403BOX) and resolved at 130 V for 2 h with a NuPAGE MOPS SDS running buffer (Thermo Fisher Scientific Cat# NP0001-02). Proteins were electrophoretically transferred onto a 0.45 μm nitrocellulose membrane (GE Healthcare, Amersham Protran Supported […] NC) at 90 V for 90 min on ice in a transfer buffer (48 mM tris base and 39 mM glycine supplemented with 20% methanol).

Row | SMILES | EC50 (pRab10; 4 h) | EC50 (pRab10; 24 h) | pRab10 T1/2 (pRab10; human, pbmc, 300 nM) | DC50 (human LRRK2; 4 h, read-out: DC50,4h (LRRK2)) | DC50 (human LRRK2; 24 h, read-out: DC50,24h (LRRK2)) | DC50,4h (LRRK2) (human LRRK2; 4 h) | Dmax (LRRK2) (human LRRK2; 4 h) | DC50,24h (LRRK2) (human LRRK2; 24 h) | Dmax (LRRK2) (human LRRK2; 24 h)
1 | CNc1nc(Nc2ccc(C(=O)N3CCN(C[C@H]4CC[C@H](CSC(C)(C)[C@H](NC(=O)C5(F)CC5)C(=O)N5C[C@H](O)CC5C(=O)NCc5ccc(-c6scnc6C)cc5)CC4)CC3)cc2OC)ncc1Cl (stereo partly drawn) [XL01126, (2S,4R)-1-((R)-3-((((1R,4R)-4-((4-(4-((5-Chloro-4-(methylamino)pyrimidin-2-yl)amino)-3-methoxybenzoyl)piperazin-1-yl)methyl)cyclohexyl)methyl)thio)-2-(1-fluorocyclopropane-1-carboxamido)-3-methylbutanoyl)-4-hydroxy-N-(4-(4-methylthiazol-5-yl)benzyl)pyrrolidine-2-carboxamide] | 69 nM | 20 nM | 0.38 h | 72 nM | 17 nM | – | – | – | –
2 | CNc1nc(Nc2ccc(C(=O)N3CCN(C[C@H]4CC[C@H](CSC(C)(C)[C@H](NC(=O)C5(F)CC5)C(=O)N5C[C@@H](O)C[C@H]5C(=O)NCc5ccc(-c6scnc6C)cc5)CC4)CC3)cc2OC)ncc1Cl [cis-XL01126, (2S,4S)-1-((R)-3-((((1R,4R)-4-((4-(4-((5-Chloro-4-(methylamino)pyrimidin-2-yl)amino)-3-methoxybenzoyl)piperazin-1-yl)methyl)cyclohexyl)methyl)thio)-2-(1-fluorocyclopropane-1-carboxamido)-3-methylbutanoyl)-4-hydroxy-N-(4-(4-methylthiazol-5-yl)benzyl)pyrrolidine-2-carboxamide] | ~3000 nM | 705 nM | – | – | – | NDO | NDO | NDO | NDO
